# Reference: patent US7354904B2, “Bacteriocin inducer peptides” (priority 2005, dated 2008)
# B1: NRWYCNSAAGGVGGAAVCGLAGYVGEAKENIAGEVRKGWGMAGGFTHNKACKSFPGSGWASG (protein, listed as Streptococcus cricetus)
# chain: NRWYCNSAAGGVGGAAVCGLAGYVGEAKENIAGEVRKGWGMAGGFTHNKACKSFPGSGWASG
# notes: bacteriocin produced by Streptococcus cricetus LWP 760
# Assays:
# [1] = tested on: Campylobacter jejuni; assay: Direct detection of antimicrobial activity: SDS-PAGE / isoelectrofocusing gel overlaid with Campylobacter jejuni; type: cell-based
# Source text: (§1) FIGS. 1A and 1B are photographs showing the direct detection of signal peptide and bacteriocin OR-7 after SDS-PAGE (A) and isoelectrofocusing (B). […] In FIG. 1A Lane 1-Molecular Mass Markers LMW Range 2,100-12,500 (Amersham Pharmacia Biotech): 2,100; 5,780; 8,400; 12,500 Da. […] Lane 3 contained pI standards (Protein Test Mixture, I Marker Proteins, Serva): 10.0, 9.2, 8.1, 6.9, 5.5, 4.3.
# (§2) FIGS. 2A and 2B are photographs showing direct detection of signal peptide and bacteriocin 50-52 after SDS-PAGE (A) and isoelectrofocusing (B). […] Lane 3 contained pI standards (Protein Test Mixture, I Marker Proteins, Serva): 10.0, 8.1, 7.9, 6.4, 5.5, 4.3, 4.1, and 3.8.
# (§3) FIGS. 3A and 3B are photographs showing the direct detection of signal peptide and bacteriocin 760 after SDS-PAGE(A) and isoelectrofocusing (B). […] Lane 3 contained pI standards (Protein Test Mixture, I Marker Proteins, Serva): 10.0, 8.1, 7.9, 6.4, 5.5, 4.3, 4.1, and 3.8.
# [2] = Isoelectric point by isoelectrofocusing; type: physicochemical
# Source text: as §1, §2, §3
# At the end of 14 hours the supernatant from the cultures was placed into 500 ml centrifuge flasks with about one milliliter of regenerated Sepharose SP Fast Flow (v/v 500: 1). This was incubated for approximately 1 hour at room temperature with stirring. The suspension was then washed with about 100 ml of a 0.2 M TRIS-HCl buffer pH approximately 6.4. The bacteriocins were eluted by centrifugation with about 100 ml of approximately 0.2 M K2HPO4, pH of about 5.8 at about 7,000×g for approximately 10 minutes. Antagonistic activity of the bacteriocin fractions against C. jejuni and S. enteritidis was assessed using a Spot Test as described above. The level of purity of the bacteriocin fractions was determined by SDS-PAGE. The isoelectric points of the fractions were determined by isoelectric focusing. Concentrations of protein for all bacteriocin fractions were determined at 215 nm using a spectrophotometer.
# [3] = tested on: Streptococcus cricetus LWP 760; assay: Influence of signal peptide on bacteriocin 760 production, flask culture (fraction protein at 215 nm, activity by Spot Test against C. jejuni and S. enteritidis); type: cell-based
# [4] = tested on: C. jejuni; assay: Spot Test, antagonistic activity of isolated signal peptides; type: cell-based, Campylobacter jejuni; settings: isolated signal peptide
# Description: (§4) The antagonistic activity of the bacteriocins produced when using the signal peptide and an inducer strain of bacteria against C. jejuni and S. enteritidis was assessed using a Spot Test. The steps included taking various concentrations of pure preparation (μg/ml) of the bacteriocin in approximately 10 microliters of volume plated onto blood-supplemented Campylobacter agar or Nutrient agar (MPA or Meta Peptone Agar) previously seeded with cells of target bacteria. Plates containing cultures of C. jejuni were grown at about 42° C., under microaerobic conditions. Plates containing S. enteritidis were grown at about 37° C. under aerobic conditions. Activity of the bacteriocin was expressed in arbitrary units (AU) per one milliliter of the preparation at which a visible zone of inhibition of the growth of culture appears (Henderson et al., Archives of Biochemistry and Biophysics, Volume 295, 5-12, 1992; herein incorporated by reference). Specific activity can also expressed as arbitrary units per milligram of pure bacteriocin.
# (§5) Its activity was about 200 AU/ml and its molecular weight was about 2.5 kDa, as determined by SDS-PAGE electrophoresis. The isoelectric point (pI) was about 7.9 (FIGS. 1A and 1B).
# (§6) Its molecular weight was about 3.1 kDa as measured by SDS-PAGE and the isoelectric point (pI) was about 8.1 (FIGS. 2A and 2B).
# (§7) Its molecular weight was about 2.1 kDa as determined by SDS-PAGE electrophoresis and its isoelectric point was about 8.9 (FIGS. 3A and 3B).
# [5] = tested on: Lactobacillus salivarius PVD-32; assay: Bacteriocin OR-7 production with signal peptide under scaled up conditions (bioreactor); type: cell-based; settings: V-61 reactor, 10% Brucella Broth, PVD-32, LWP252, peptide 0.2 mg, pH 6.9, 37° C., 14 hours
# [6] = tested on: Lactobacillus salivarius PVD-32; assay: Influence of signal peptide on bacteriocin OR-7 production, flask culture (fraction protein at 215 nm, activity by Spot Test against C. jejuni and S. enteritidis); type: cell-based; settings: for Activity / Protein Concentration / Protein increase vs. Control / Specific Activity / mg protein/liter: 10% B-B
# [7] = tested on: Enterococcus faecium LWP 50-52; assay: Influence of signal peptide on bacteriocin 50-52 production, flask culture (fraction protein at 215 nm, activity by spot-test against C. jejuni and S. enteritidis); type: cell-based
# [8] = tested on: S. enteritidis; assay: Spot Test, antagonistic activity of isolated signal peptides; type: cell-based; settings: isolated signal peptide
# Description: as §4, §5, §6, §7
# [9] = LWP 760 + LWP320, 0.1 mg PVD 32 peptide
# [10] = producer PVD32, no inducer, peptide 0.1 mg
# [11] = producer PVD-32 + inducer LWP-252, peptide 0.001 mg
# [12] = producer PVD-32 + inducer LWP-252, peptide 0.01 mg
# [13] = producer PVD-32 + inducer LWP-252, peptide 0.1 mg
# [14] = producer PVD-32, no inducer, peptide 0.001 mg
# [15] = producer PVD-32, no inducer, peptide 0.01 mg
# [16] = LWP 50-52 + LWP 320, PVD-32 peptide 0.1 mg/ml
molecule,measurement,setting,value
"KTYYGTNGVHCTKNSLWGKVRLKNMKYDQNTTYMGRLQDILLGWATGAFGKTH (listed as Lactobacillus salivarius) [bacteriocin OR-7, bacteriocin produced by Lactobacillus salivarius PVD-32]",antimicrobial activity of band (zone of growth inhibition),[1],corresponds to the antimicrobial activity
same,isoelectric point (pI),[2],about 8.4
"MVTKSLVLAWVVALLACGMVKGLT (listed as Lactobacillus salivarius) [PVD-32 Signal Peptide, signal peptide isolated from Lactobacillus salivarius PVD-32, stimulates bacteriocin OR-7 production]",Activity,[3]; [9],"1,638,840 AU/ml"
same,Increase in amount of protein vs. control,[3]; [9],1
same,Protein Concentration,[3]; [9],0.30 mg/mL
same,Protein Produced from 1 liter Culture Fluid,[3]; [9],99 mg
same,Specific Activity,[3]; [9],"5,462,666 Au/mg"
same,yield of bacteriocin 760 versus control,[3]; signal peptide of another strain added to LWP 760 + LWP 320,did not increase
same,Activity,[4],about 200 AU/ml
same,antagonistic activity,[4],weak antagonistic activity
same,Activity,[5],"3,276,800 AU/ml"
same,Amount of Protein produced in One liter,[5],225 mg
same,Concentration of Protein,[5],1.5 mg/mL
same,Increase in amount of protein vs. control,[5],3
same,Specific Activity,[5],"2,184,533 AU/mg"
same,Activity,[6]; [10],"102,400 AU/ml"
same,Protein Concentration,[6]; [10],0.18 Mg/ml
same,Protein increase vs. Control,[6]; [10],0.9
same,Specific Activity,[6]; [10],"568,888 AU/mg"
same,mg protein/liter,[6]; [10],59.4 mg protein/liter
same,Activity,[6]; [11],"409,600 AU/ml"
same,Protein Concentration,[6]; [11],0.22 Mg/ml
same,Protein increase vs. Control,[6]; [11],1.1
same,Specific Activity,[6]; [11],"1,861,818 AU/mg"
same,mg protein/liter,[6]; [11],72.6 mg protein/liter
same,Activity,[6]; [12],"1,638,400 AU/ml"
same,Protein Concentration,[6]; [12],0.65 Mg/ml
same,Protein increase vs. Control,[6]; [12],3.25
same,Specific Activity,[6]; [12],"2,520,615 AU/mg"
same,mg protein/liter,[6]; [12],214.5 mg protein/liter
same,mg protein/liter,"[6]; producer PVD-32 + inducer LWP-252, peptide 0.01 mg, listed as signal peptide from PVD-32",about 214.5 mg protein/liter
same,Activity,[6]; [13],"409,600 AU/ml"
same,Protein Concentration,[6]; [13],0.22 Mg/ml
same,Protein increase vs. Control,[6]; [13],1.1
same,Specific Activity,[6]; [13],"1,861,818 AU/mg"
same,mg protein/liter,[6]; [13],72.6 mg protein/liter
same,Activity,[6]; [14],"204,800 AU/ml"
same,Protein Concentration,[6]; [14],0.2 Mg/ml
same,Protein increase vs. Control,[6]; [14],1
same,Specific Activity,[6]; [14],"1,024,000 AU/mg"
same,mg protein/liter,[6]; [14],66 mg protein/liter
same,Activity,[6]; [15],"204,800 AU/ml"
same,Protein Concentration,[6]; [15],0.2 Mg/ml
same,Protein increase vs. Control,[6]; [15],1
same,Specific Activity,[6]; [15],"1,024,000 AU/mg"
same,mg protein/liter,[6]; [15],66 mg protein/liter
same,production of bacteriocin OR-7 per liter of culture fluid,[6]; simultaneous culture of PVD-32 and LWP-252 with signal peptide (flask and bioreactor),214-225 milligrams
same,Activity,[7]; [16],"819,200 AU/ml"
same,Protein Concentration,[7]; [16],0.25 mg/mL
same,Protein increase vs. Control,[7]; [16],1
same,Specific Activity,[7]; [16],"3,276,800 AU/mg"
same,mg protein/liter,[7]; [16],82.5 mg protein/liter
same,yield of bacteriocin 50-52 versus the control,[7]; signal peptide of another strain added to LWP 50-52 + LWP 320,did not increase
same,isoelectric point (pI),[2],about 7.9
same,Activity,[8],about 200 AU/ml
same,antagonistic activity,[8],weak antagonistic activity
"TTKNYGNGVCNSVNWCQCGNVWASCNLATGCAAWLCKLA (listed as Enterococcus faecium) [bacteriocin 50-52, bacteriocin produced by Enterococcus faecium LWP 50-52]",antimicrobial activity of band (zone of growth inhibition),[1],corresponds to the antimicrobial activity
same,isoelectric point (pI),[2],about 8.4
B1,antimicrobial activity of band (zone of growth inhibition),[1],corresponds to the antimicrobial activity
same,isoelectric point (pI),[2],about 9.5
